Changes are numbered by the printed parent chain.
What was measured:
Type in all cases: cell-based
[1] = system: FLT3 D835L+K; assay: FLT3 autophosphorylation, immunoprecipitation/Western blot, D835L+K; details: D835L+K mutant, concentrations of 200 nM, 1 h
Procedure: (§1) Activated FLT3 expression was measured by performing immunoprecipitation, SDS-PAGE and Western blotting as previously described. Specifically, 10^7 cells were washed in medium and treated with inhibitor for 1 h followed by stimulation with 25 ng/ml of FLT3 ligand for 15 minutes where indicated. Cells were washed twice with ice-cold PBS and lysed in 300 µl of NP-40 lysis buffer (150 mM NaCl, 20 mM TrisHCl (pH7.4), 10% glycerol, 1% NP-40, 10 mM EDTA, 100 mM NaF) with 2 mM Na3VO4 and protease inhibitors (Complete Tablets, Roche, Mannheim, Germany) at 4°C for 30 m. Cell lysate was harvested by centrifugation at 13,000 × g for 30 m at 4°C. FLT3 S-18 antibody was incubated with 500 µg lysate overnight at 4°C followed by immunoprecipitation with protein A-agarose beads for 2 h. Beads were washed once in Tris buffered saline with 1% Tween-20 (TBST) and twice in TBS. Samples were boiled in sodium dodecyl sulfate (SDS) sample buffer prior to separating in a 8% SDS-polyacrylamide gel (SDS-PAGE). Proteins were transferred to a polyvinyl diflouride (PVDF) membrane (Millipore, Bedford, MA, USA) and detected by 4G10 phosphotyrosine antibody and anti-FLT3 S-18 antibody. FLT3 was visualized using the Odyssey Infra Red Imaging System from Li-Cor (Lincoln, NE, USA) using AlexaFluor 680 goat anti-mouse and AlexaFluor 800 goat anti-rabbit antibodies. […]

[2] = molecular target: T1, FLT3 I836S (Homo sapiens, UniProt P36888, I836S); assay: FLT3 autophosphorylation, immunoprecipitation/Western blot, I836S; details: I836S mutant, concentrations of 200 nM, 1 h
T1 construct: expressed in transfected cells; host or cells: BaF3
T1 sequence (P36888 27-993 I836S): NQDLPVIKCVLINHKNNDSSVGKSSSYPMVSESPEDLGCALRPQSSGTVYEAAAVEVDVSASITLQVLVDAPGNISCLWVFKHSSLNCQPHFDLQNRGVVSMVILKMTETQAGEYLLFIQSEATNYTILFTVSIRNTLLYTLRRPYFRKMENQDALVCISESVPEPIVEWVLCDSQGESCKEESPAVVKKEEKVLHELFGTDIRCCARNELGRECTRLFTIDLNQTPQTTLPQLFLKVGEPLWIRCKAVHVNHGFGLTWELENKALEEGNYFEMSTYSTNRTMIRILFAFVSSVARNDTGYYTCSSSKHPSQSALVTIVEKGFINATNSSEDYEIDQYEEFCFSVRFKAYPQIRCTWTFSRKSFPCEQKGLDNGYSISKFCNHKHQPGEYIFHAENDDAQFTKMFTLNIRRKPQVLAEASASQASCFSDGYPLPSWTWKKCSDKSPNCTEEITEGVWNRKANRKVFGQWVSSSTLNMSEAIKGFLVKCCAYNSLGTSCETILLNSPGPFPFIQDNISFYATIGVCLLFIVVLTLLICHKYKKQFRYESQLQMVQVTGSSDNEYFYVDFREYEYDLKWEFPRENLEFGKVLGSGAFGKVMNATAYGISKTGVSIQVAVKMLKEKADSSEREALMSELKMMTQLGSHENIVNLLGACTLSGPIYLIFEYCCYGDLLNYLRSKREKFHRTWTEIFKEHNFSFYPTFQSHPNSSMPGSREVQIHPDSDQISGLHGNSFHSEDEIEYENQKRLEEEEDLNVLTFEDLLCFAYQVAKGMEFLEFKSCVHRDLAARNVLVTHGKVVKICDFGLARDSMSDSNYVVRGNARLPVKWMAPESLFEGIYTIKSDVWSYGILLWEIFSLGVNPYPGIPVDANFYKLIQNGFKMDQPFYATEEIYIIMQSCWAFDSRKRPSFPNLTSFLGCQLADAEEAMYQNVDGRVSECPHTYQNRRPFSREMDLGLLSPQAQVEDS
Procedure: as §1

[3] = molecular target: T2, FLT3 I836T (Homo sapiens, UniProt P36888, I836T); assay: FLT3 autophosphorylation, immunoprecipitation/Western blot, I836T; details: I836T mutant, concentrations of 200 nM, 1 h
T2 construct: expressed in transfected cells; host or cells: BaF3
T2 sequence (P36888 27-993 I836T): T1 sequence (P36888 27-993 I836S) with S810T
Procedure: as §1

Compound	Inhibition of FLT3 phosphorylation [1]	Inhibition of FLT3 phosphorylation [2]	Inhibition of FLT3 phosphorylation [3]
CC1(COc2ccc3c(c2)ncn3-c2ccc3cccc(N4CCC(N)CC4)c3n2)COC1 [Crenolanib]	significant autophosphorylation still observable	significant autophosphorylation still observable	significant autophosphorylation still observable
Cc1ccc(C(=O)Nc2ccc(CN3CCN(C)CC3)c(C(F)(F)F)c2)cc1C#Cc1cnc2cccnn12 [Ponatinib]	significant autophosphorylation still observable	significant autophosphorylation still observable	significant autophosphorylation still observable
